Active and inactive are the calls of the source.
Experiments:
[1] = system: HeLa; experiment: ATP-based viability loss in HeLa cells – cell-based, CellTiter-Glo luminescence, cherry-pick samples, cytotoxicity control for MITF activator project, dose response (AID 540259); type: functional; conditions: Homo sapiens
[2] = system: HEK293; experiment: inhibition of NOD1-driven NF-kB reporter – cell-based, luminescence, uHTS, primary screen (AID 1578); type: functional; conditions: Homo sapiens
[3] = system: HEK293; experiment: cells; type: functional, cell-based; conditions: Homo sapiens
[4] = system: HEK293; experiment: cells; type: functional, cell-based; conditions: Homo sapiens; remark: listed apart in the source
[5] = molecular target: Nucleotide-binding oligomerization domain-containing protein 2 (Homo sapiens, UniProt Q9HC29); experiment: inhibition of NOD2-driven NF-kB reporter – cell-based, luminescence, uHTS, HEK293 (AID 1566); type: functional
[6] = system: HEK293; experiment: NOD2 signaling inhibitors in MDP-stimulated cells, cell-based, uHTS, luminescence (AID 2001); type: functional; conditions: Homo sapiens
[7] = system: HEK293; experiment: cells; type: functional, cell-based; conditions: Homo sapiens; remark: listed apart in the source
[8] = molecular target: T1, Estrogen receptor (Homo sapiens, UniProt P03372);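 note: potency for inhibiting coactivator peptide recruitment to the receptor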
T1 sequence (P03372 whole entry): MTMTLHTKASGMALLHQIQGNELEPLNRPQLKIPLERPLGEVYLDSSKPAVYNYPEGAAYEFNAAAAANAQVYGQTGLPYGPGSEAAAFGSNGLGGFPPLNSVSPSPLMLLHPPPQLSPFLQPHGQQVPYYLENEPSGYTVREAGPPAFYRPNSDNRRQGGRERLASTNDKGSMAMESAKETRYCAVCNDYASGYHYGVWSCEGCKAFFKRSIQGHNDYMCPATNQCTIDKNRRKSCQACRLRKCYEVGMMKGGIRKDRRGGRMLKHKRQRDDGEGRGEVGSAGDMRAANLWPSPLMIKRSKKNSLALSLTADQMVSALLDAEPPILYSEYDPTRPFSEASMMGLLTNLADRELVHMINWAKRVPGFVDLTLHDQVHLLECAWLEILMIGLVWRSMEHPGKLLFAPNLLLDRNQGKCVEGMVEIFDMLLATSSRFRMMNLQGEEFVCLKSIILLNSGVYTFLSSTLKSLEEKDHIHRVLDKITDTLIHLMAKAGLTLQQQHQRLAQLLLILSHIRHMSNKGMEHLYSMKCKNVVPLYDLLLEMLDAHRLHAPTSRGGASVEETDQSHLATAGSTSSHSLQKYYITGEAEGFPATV

[9] = molecular target: Nonstructural protein 1 (Influenza A virus, UniProt Q194T2); type: functional, Influenza A virus (A/California/07/2009(H1N1))
[10] = molecular target: Melanocortin receptor 4 (Homo sapiens, UniProt P32245); experiment: inhibitors of MC4R cAMP signaling – cell-based, TR-FRET, biased antagonists, dose response (AID 602298); type: functional;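 note: antagonist potency against agonist-stimulated cAMP production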
[11] = cAMP pathway inhibition in counterscreen cell line – TR-FRET cAMP detection, counter-screen for MC4R biased antagonist project, dose response (AID 602305); type: functional, cell-based;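 note: U2OS cells stimulated with forskolin near its EC80 as the cAMP inducer; potency is for inhibition of forskolin-stimulated cAMP signaling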
[12] = molecular target: T2, Heat shock factor protein 1 (Mus musculus, UniProt P38532); experiment: decrease of HSF1-responsive luciferase luminescence – cell-based, NIH3T3, dose retest, confirmation (AID 2382); type: functional;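 note: NIH3T3 fibroblasts with HSF1-driven luciferase reporter stressed by proteasome inhibitor MG132; luminescence from HSF1-driven luciferase expression after 8 hours of MG132 stress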
T2 sequence (P38532 whole entry): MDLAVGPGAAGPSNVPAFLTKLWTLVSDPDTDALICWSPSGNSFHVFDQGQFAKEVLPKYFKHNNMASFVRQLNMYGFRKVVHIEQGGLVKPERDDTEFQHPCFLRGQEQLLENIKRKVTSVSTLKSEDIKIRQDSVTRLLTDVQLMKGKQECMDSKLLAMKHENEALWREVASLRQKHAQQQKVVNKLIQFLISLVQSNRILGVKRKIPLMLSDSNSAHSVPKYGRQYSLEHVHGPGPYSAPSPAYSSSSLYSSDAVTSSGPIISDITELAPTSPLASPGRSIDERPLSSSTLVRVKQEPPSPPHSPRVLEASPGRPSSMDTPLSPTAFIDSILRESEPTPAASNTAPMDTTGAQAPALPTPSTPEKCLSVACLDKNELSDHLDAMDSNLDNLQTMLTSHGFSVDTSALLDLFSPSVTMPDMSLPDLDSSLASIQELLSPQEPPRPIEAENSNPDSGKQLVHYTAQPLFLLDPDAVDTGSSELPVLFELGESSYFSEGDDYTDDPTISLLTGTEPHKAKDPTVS

[13] = molecular target: Cytochrome P450 3A4 (Homo sapiens, UniProt P08684); conditions: Potency;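 note: confirmatory qHTS run detecting inhibitors and substrates of CYP3A4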
[14] = Vero E6 cell cytotoxicity, dose response, cytotoxicity control for non-replicating M. tuberculosis project, secondary assay (AID 492998); type: functional, VeroE6; conditions: Vero C1008
[15] = cells; type: functional
[16] = molecular target: Tumor necrosis factor (Homo sapiens, UniProt P01375); experiment: analog potency on TNFa NF-kB signaling – cell-based, revised, SAR follow-up (AID 2337); type: functional
[17] = system: HEK293; experiment: cells; conditions: Homo sapiens
[18] = system: HEK293; experiment: EBV LMP1 TES2 canonical NF-kB signalling blockers – cell-based, HEK293, luciferase, cherry-pick, dose response (AID 588343); type: functional; conditions: Homo sapiens
[19] = molecular target: Melanin-concentrating hormone receptor 1 (Homo sapiens, UniProt Q99705); experiment: Late-stage fluorescence-based counterscreen for antagonists of the G-protein coupled receptor 7 (GPR7): cell-based dose response assay to identify antagonists of the melanin-concentrating hormone receptor 1 (MCHR1) Set 6.; type: functional
[20] = molecular target: T3, Neuropeptides B/W receptor type 1 (Homo sapiens, UniProt P48145); experiment: human NPBW1 receptor blockade, IC50 – cell-based, fluorescence, dose response, set 6, late-stage follow-up (AID 588583); type: functional
T3 sequence (P48145 whole entry): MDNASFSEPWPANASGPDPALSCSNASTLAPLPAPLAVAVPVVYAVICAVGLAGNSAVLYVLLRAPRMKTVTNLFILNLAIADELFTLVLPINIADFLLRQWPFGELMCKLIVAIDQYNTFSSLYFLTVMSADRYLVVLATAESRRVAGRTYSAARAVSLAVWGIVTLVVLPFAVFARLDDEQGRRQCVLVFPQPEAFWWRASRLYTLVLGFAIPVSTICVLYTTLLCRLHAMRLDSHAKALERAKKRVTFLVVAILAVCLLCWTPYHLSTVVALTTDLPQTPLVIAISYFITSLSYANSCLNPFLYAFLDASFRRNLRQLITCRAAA

[21] = system: P388/ADR; experiment: cells; type: functional; conditions: Mus musculus
[22] = system: SN12K1; experiment: cells; type: functional; conditions: Homo sapiens
[23] = system: P388; experiment: cells; type: functional; conditions: Mus musculus
[24] = molecular target: Luciferin 4-monooxygenase (Photinus pyralis, UniProt P08659); experiment: inhibition of purified Photinus pyralis luciferase – biochemical, luminescence, dose response (AID 1891)
[25] = Luminescence Cell-Based Dose Confirmation HTS to Identify Inhibitors of Platelet Dense Granule Release. [Related pubchem assays: 1663 (Primary HTS), 1678 (Summary of Project)]; type: functional
[26] = microbe, parasite or virus in culture; type: functional; conditions: Mycobacterium tuberculosis
[27] = molecular target: T4, Ubiquitin-conjugating enzyme E2 N (Homo sapiens, UniProt P61088); type: functional;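 note: Dose-response confirmation in a TR-FRET assay detecting UBC13-driven polyubiquitin chain formation, inhibition measured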
T4 sequence (P61088 whole entry): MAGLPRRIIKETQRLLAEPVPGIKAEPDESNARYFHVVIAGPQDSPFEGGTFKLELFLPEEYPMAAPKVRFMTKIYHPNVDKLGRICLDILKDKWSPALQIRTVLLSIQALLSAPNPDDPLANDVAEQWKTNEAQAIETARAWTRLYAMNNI

[28] = system: Vero; experiment: cells; type: functional; conditions: Chlorocebus sabaeus

Sequence of Melanocortin receptor 4 (P32245 whole entry): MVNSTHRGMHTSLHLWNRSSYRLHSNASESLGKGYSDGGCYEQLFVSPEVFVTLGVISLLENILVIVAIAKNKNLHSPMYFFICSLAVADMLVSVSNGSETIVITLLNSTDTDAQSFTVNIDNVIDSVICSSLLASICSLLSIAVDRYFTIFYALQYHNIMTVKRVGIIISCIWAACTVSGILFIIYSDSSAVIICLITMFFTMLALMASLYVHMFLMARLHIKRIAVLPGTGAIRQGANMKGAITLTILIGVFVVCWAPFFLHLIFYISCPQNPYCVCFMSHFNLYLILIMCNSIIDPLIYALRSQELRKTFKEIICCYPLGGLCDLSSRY
Sequence of Nucleotide-binding oligomerization domain-containing protein 2 (Q9HC29 whole entry, the tested form may be a part): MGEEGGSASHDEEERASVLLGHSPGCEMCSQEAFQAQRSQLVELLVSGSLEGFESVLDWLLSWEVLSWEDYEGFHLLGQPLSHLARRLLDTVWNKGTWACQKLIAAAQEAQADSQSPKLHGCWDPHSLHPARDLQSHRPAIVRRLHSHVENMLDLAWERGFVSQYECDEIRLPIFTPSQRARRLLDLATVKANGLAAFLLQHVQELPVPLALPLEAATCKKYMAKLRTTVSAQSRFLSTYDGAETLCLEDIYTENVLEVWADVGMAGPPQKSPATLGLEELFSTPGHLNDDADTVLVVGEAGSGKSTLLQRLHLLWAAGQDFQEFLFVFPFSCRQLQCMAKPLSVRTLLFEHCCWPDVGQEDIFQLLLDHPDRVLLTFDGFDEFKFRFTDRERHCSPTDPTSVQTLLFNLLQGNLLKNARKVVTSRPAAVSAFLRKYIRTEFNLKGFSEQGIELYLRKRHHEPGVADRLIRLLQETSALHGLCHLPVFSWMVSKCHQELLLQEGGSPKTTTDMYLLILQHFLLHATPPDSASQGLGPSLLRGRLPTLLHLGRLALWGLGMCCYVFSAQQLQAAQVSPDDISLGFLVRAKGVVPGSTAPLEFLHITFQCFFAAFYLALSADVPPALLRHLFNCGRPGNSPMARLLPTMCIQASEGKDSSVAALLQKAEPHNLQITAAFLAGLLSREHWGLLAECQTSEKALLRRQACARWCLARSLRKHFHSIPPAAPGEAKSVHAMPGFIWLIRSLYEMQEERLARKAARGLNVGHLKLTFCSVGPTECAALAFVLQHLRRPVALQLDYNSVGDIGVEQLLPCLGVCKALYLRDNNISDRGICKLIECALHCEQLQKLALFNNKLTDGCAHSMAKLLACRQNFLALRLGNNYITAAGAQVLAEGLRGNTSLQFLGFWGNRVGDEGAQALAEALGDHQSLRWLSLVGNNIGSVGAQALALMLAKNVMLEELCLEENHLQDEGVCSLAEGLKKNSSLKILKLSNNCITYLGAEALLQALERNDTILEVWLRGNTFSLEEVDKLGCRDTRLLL
Sequence of Melanin-concentrating hormone receptor 1 (Q99705 whole entry): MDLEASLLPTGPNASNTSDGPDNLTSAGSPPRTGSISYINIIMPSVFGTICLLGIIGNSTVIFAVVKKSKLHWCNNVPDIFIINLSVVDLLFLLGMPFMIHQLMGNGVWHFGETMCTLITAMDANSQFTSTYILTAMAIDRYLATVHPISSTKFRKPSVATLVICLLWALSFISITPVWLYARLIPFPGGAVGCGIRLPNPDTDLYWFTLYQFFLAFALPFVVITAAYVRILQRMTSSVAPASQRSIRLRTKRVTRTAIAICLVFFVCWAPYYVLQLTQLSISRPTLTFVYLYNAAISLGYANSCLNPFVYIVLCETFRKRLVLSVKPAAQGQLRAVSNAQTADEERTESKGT
Sequence of Cytochrome P450 3A4 (P08684 whole entry): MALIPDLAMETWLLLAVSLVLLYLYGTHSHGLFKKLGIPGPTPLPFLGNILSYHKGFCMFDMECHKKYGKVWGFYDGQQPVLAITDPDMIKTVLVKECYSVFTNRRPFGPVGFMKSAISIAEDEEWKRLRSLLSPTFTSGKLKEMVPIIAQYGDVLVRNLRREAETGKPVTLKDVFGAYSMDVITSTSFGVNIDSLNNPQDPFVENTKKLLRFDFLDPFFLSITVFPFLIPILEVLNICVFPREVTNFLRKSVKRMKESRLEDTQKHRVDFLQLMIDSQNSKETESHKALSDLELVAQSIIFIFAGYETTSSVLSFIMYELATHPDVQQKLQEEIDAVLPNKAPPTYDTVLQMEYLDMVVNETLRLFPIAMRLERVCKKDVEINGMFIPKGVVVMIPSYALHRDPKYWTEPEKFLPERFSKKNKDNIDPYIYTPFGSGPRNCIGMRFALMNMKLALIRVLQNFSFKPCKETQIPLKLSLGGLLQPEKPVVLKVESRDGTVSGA
Sequence of Luciferin 4-monooxygenase (P08659 whole entry): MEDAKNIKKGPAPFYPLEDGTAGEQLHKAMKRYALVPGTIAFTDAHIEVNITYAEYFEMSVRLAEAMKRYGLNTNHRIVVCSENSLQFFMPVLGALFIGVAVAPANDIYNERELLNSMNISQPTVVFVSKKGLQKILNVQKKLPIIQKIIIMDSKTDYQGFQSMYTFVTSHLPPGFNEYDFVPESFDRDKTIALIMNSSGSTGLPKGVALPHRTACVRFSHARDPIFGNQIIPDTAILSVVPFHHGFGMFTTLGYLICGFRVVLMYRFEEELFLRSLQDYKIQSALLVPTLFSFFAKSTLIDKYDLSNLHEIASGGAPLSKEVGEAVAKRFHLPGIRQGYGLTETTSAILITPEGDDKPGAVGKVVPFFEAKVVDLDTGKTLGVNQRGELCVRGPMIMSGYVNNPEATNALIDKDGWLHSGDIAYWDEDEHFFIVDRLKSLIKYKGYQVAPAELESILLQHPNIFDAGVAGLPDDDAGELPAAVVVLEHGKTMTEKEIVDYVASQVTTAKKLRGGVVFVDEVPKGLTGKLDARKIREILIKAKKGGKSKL
Sequence of Nonstructural protein 1 (Q194T2 whole entry): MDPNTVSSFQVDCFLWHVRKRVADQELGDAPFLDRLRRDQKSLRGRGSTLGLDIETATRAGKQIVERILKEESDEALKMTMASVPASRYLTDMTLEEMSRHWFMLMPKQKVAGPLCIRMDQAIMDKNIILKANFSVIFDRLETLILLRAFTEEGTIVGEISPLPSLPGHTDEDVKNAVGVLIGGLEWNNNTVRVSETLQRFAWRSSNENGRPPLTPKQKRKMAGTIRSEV
Sequence of Tumor necrosis factor (P01375 whole entry): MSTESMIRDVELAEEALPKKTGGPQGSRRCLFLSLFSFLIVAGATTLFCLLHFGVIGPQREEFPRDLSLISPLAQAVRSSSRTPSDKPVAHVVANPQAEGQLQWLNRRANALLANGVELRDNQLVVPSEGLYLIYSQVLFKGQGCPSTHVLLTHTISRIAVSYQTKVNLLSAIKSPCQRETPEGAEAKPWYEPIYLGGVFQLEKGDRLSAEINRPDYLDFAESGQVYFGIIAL

SMILES: O=C(NCCc1cccs1)c1ccc(Cl)c(Cl)c1
- AC50 [1]: 44.2 µM (active)

SMILES: COc1ccccc1NC(=O)CSc1nc2sc(C)c(C)c2c(=O)n1C
- EC50 [2]: > 20 µM (inactive)
- IC50 [3]: 12.7 µM (active)
- IC50 [4]: > 20 µM (inactive)
- EC50 [5]: > 20 µM (inactive)
- IC50 [6]: 8.8 µM (active)
- IC50 [7]: > 20 µM (inactive)

SMILES: COc1ccc(C(=O)CSc2nnc(C3CCCCC3)n2N)c(OC)c1
- IC50 [8]: > 50 µM (not active)

SMILES: Fc1ccc(F)c(CNc2ncnc3cc(Cl)ccc23)c1
- EC50 [2]: 9.76 µM (active)
- IC50 [3]: 6.42 µM (active)
- IC50 [4]: 11.9 µM (active)
- EC50 [5]: > 20 µM (inactive)
- IC50 [6]: 12.7 µM (inactive)
- IC50 [7]: > 20 µM (inactive)

SMILES: Cc1cccn2c(=O)c(C=C(C#N)C#N)c(N3CCN(c4ccccc4)CC3)nc12
- IC50 [9]: > 100 µM (active)

SMILES: Cc1cc(OCC(=O)Nc2ccncc2)cc(C)c1Br
- EC50 [2]: 3.21 µM (active)
- IC50 [3]: 5.24 µM (active)
- IC50 [4]: 13.3 µM (active)
- EC50 [5]: 8.76 µM (active)
- IC50 [6]: 6.86 µM (active)
- IC50 [7]: > 20 µM (inactive)

SMILES: COc1ccc(OC)c(NC(=O)CCN2C(=O)c3cccc([N+](=O)[O-])c3C2=O)c1
- IC50 [10]: > 64.6 µM (inactive)
- IC50 [11]: > 64.6 µM (inactive)

SMILES: Cc1ccc(C(=O)Nc2ncccc2S(=O)(=O)c2ccccc2)cc1
- AC50 [1]: > 350 µM (inactive)

SMILES: COc1cccc(C(=O)Nc2sc(C(C)C)cc2C(N)=O)c1OC
- EC50 [12]: > 195 µM (not active)
- IC50 [10]: > 64.6 µM (inactive)
- IC50 [11]: > 64.6 µM (inactive)

SMILES: O=S(=O)(Nc1nc2ccccc2nc1Nc1ccc2c(c1)OCO2)c1ccc(F)cc1
- EC50 [2]: 2.81 µM (active)
- IC50 [3]: 8.92 µM (active)
- IC50 [4]: > 20 µM (inactive)
- EC50 [5]: 11.6 µM (active)
- IC50 [6]: 6.29 µM (active)
- IC50 [7]: > 20 µM (inactive)

SMILES: COC(=O)N1[C@H](C)C=C[C@]1(Cc1ccccc1)C(=O)NCc1ccc(C)o1
- AC50 [13]: 7.94 µM (inconclusive)

SMILES: Cc1ccc(-n2cccc2/C=C2\C(=N)N3N=C(C(C)C)SC3=NC2=O)cc1
- IC50 [10]: > 64.6 µM (inactive)
- IC50 [11]: > 64.6 µM (inactive)

SMILES: O=C(Nc1nnc(-c2ccco2)o1)c1cccc2ccccc12
- CC50 [14]: > 20 µM (active)
- IC50 [15]: 4.54 µM (active)

SMILES: O=C(CNC(=O)c1ccc(Oc2ccccc2)cc1)OC1CCCCC1=O (stereo not given)
- IC50 [10]: > 64.6 µM (inactive)
- IC50 [11]: > 64.6 µM (inactive)

SMILES: N#Cc1ccc(N2CCN(S(=O)(=O)c3ccc4c(c3)CCN4C(=O)C3CC3)CC2)cc1
- IC50 [16]: 13.3 µM (active)
- IC50 [17]: > 20 µM (inactive)

SMILES: CCc1ccc(/C=C2\SC(=S)N(CCCC(=O)NC3=NCCS3)C2=O)cc1
- AC50 [18]: 1.85 µM (active)

SMILES: COc1ccc(C(C#N)c2c(Cl)cnn(Cc3cccc4ccccc34)c2=O)c(F)c1 (stereo not given)
- IC50 [19]: 0.198 µM (active)
- IC50 [20]: 0.198 µM (active)

SMILES: CC(C)(C#N)c1c(Cl)cnn(Cc2cccc3ccccc23)c1=O
- IC50 [19]: 2.5 µM (active)
- IC50 [20]: 2.5 µM (active)

SMILES: C=C1C(O)C2(O)OCC34C(CC5C(C)=CC(=O)C(O)C5(C)C23)OC(=O)C(OC(=O)C/C=C/CCCCCCCC)C14 (stereo not given)
- GI50 [21]: 0.0611 µM (active)
- GI50 [22]: 0.02 µM (active)
- GI50 [23]: 0.02 µM (active)

SMILES: CC(C)(C)c1ccc2c(c1)OP1(Oc3cccc4cccnc34)(O2)Oc2ccc(C(C)(C)C)cc2O1
- GI50 [21]: 1.02 µM (active)
- GI50 [22]: 4.24 µM (inactive)
- GI50 [23]: 0.689 µM (active)

SMILES: O=C(NC(Cc1ccc(I)cc1)C(=O)O)c1cccc(Br)c1 (stereo not given)
- GI50 [21]: 55.2 µM (inactive)
- GI50 [22]: > 100 µM (inactive)
- GI50 [23]: 47.6 µM (inactive)

SMILES: CSc1nc(NC2OCC(O)C(O)C2O)c(N)c(=O)n1C (stereo not given)
- GI50 [21]: > 100 µM (inactive)
- GI50 [22]: > 100 µM (inactive)
- GI50 [23]: > 100 µM (inactive)

SMILES: O=c1c(-c2ccc(F)c(F)c2)c(Br)cnn1Cc1cccc2ccccc12
- IC50 [19]: 0.686 µM (active)
- IC50 [20]: 0.686 µM (active)

SMILES: CC(C)CNC(=O)c1c(N)n(/N=C/c2ccccn2)c2nc3ccccc3nc12
- IC50 [8]: 15.9 µM (active)

SMILES: Cc1ccc(N(C)/N=C/c2ccc(Cl)cc2Cl)nn1
- EC50 [24]: > 112 µM (not active)
- EC50 [25]: > 112 µM (not active)
- AC50 [1]: 75.3 µM (active)

SMILES: CC(=O)C1=C(O)C=C2Oc3c(C(C)=O)c(O)c(C)c(O)c3[C@]2(C)C1=O [(-)-USNIC ACID]
- AC50 [13]: 31.6 µM (inconclusive)

SMILES: CC/C(=C(\c1ccc(O)cc1)c1ccc(OCCN(C)C)cc1)c1ccccc1 [AFIMOXIFENE]
- CC50 [26]: 16.6 µM (active)
- IC50 [27]: > 20 µM (inactive)
- CC50 [28]: 19.4 µM (active)
- AC50 [13]: 25.1 µM (inconclusive)
